Test results reported in article PMC5053890 (Bioorganic & medicinal chemistry, 2016).

Molecular target: T1, GVIA iPLA2 (Homo sapiens, UniProt O60733)
T1 sequence (O60733 1-806): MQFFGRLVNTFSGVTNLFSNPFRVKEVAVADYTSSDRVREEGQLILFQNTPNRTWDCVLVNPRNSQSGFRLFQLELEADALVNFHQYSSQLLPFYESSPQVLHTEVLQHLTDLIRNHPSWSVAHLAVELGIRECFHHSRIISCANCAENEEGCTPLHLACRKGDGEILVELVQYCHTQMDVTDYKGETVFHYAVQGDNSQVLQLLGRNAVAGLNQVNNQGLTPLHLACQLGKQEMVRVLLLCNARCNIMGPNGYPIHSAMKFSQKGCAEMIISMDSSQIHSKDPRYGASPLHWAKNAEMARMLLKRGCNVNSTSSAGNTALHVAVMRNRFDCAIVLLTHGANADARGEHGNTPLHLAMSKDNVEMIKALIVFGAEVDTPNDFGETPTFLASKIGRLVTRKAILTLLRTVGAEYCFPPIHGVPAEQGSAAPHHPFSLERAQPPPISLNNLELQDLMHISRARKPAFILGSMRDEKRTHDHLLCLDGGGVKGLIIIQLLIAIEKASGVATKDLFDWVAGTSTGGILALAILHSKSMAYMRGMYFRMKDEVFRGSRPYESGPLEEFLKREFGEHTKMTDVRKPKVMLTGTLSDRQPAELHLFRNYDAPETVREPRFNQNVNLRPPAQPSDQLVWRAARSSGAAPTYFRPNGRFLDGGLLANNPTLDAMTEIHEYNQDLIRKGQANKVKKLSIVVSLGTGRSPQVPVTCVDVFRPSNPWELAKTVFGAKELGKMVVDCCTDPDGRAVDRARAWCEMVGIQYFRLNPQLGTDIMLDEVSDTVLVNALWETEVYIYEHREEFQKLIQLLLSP
Test: hydrogen/deuterium exchange mass spectrometry
Format: binding

`CCCCCCCCSCC(=O)C(F)(F)F` [Compound 3] was tested, and the “Average % Deuteration (Presence of OTFP)” value (peptide region 481-493) was 27%, the “Average % Deuteration (Presence of OTFP)” value (peptide region 514-524) was 48% and the “Average % Deuteration (Presence of OTFP)” value (peptide region 542-562) was 51%. For the same molecule, the “Average % Deuteration (Presence of OTFP)” value (peptide region 630-655) was 48%, the “Average % Deuteration (Presence of OTFP)” value (peptide region 656-664) was 49% and the “Average % Deuteration (Presence of OTFP)” value (peptide region 770-778) was 43%.
